Assays:
[1] = Sensory evaluation of sweetness intensity in yogurt drink (Experimental Example 14); details: added alone, 3.0 points or more
Experimental: (§1) Yogurt drink (product name: 7 Premium Yogurt Drink, SEVEN-ELEVEN JAPAN CO., LTD.) was diluted 1.2 times with filtered water to prepare negative control yogurt drink.
(§2) When the carbohydrate content of 7 Premium Yogurt Drink is calculated as the total sucrose content, the negative control yogurt drink contains 10.75 g of sucrose per 100 g.
(§3) A sensory evaluation of sweetness intensity and yogurt flavor intensity was performed for each sample by a panel of three experts according to the following evaluation criteria.
(§4) Sweetness intensity and yogurt flavor intensity were each evaluated by 0.0 to 10.0 point based on the following reference samples (negative control (hereinafter referred to as NC) (0.0 point); reference 1 (hereinafter referred to as R1) (5.0 points); reference 2 (hereinafter referred to as R2) (10.0 points)). The average score (rounded to two decimal places) of each expert panelist was calculated. An average score of 3.0 points or more was considered to be functional. • NC (0.0 point): yogurt drink (product name: 7 Premium Yogurt Drink, SEVEN-ELEVEN JAPAN CO., LTD.) diluted 1.2 times with filtered water. • R1 (5.0 points): with 0.54 g of sucrose added per 99.46 g of NC. • R2 (10.0 points): with 1.08 g of sucrose added per 98.92 g of NC.

[2] = Sensory evaluation of sweetness intensity in orange drink (Experimental Examples 1-5); details: added alone, score (average) of 3.0 points or more
Experimental: A negative control orange drink was prepared by diluting an orange drink (product name: Bireley's Orange, 20% wt % orange juice, Asahi Soft Drinks Co., Ltd.) 1.2 times with filtered water.
When the carbohydrate content of Bireley's Orange is calculated as the total sucrose content, the negative control orange drink contains 9.17 g of sucrose per 100 g.
A sensory evaluation of sweetness intensity was performed for each sample by a panel of four experts according to the following evaluation criteria.
(§5) Sweetness intensity was evaluated by 0.0 to 10.0 point based on the following reference samples (negative control (hereinafter referred to as NC) (0.0 point); reference 1 (hereinafter referred to as R1) (5.0 points); reference 2 (hereinafter referred to as R2) (10.0 points)). The average score (rounded to two decimal places) of each expert panelist was calculated. An average score of 3.0 points or more was considered to be functional. • NC (0.0 point): orange drink (trade name: Bireley's Orange, Asahi Soft Drinks Co., Ltd.) diluted 1.2 times with filtered water (i.e., negative control orange drink). • R1 (5.0 points): with 0.46 g of sucrose added per 99.54 g of NC. • R2 (10.0 points): with 0.92 g of sucrose added per 99.08 g of NC.
A sensory evaluation of sweetness intensity was performed for each sample by a panel of four experts according to the same evaluation criteria as in Experimental Example 1.

[3] = Sensory evaluation of sweetness intensity in aspartame solution (Experimental Example 11); details: added alone, 3.0 points or more
Experimental: A negative control aspartame solution (0.063 wt % aspartame solution) was prepared by dissolving aspartame in filtered water.
A sensory evaluation of sweetness intensity was performed for each sample by a panel of three experts according to the following evaluation criteria.
Sweetness intensity was evaluated by 0.0 to 10.0 points based on the following reference samples (negative control (hereinafter referred to as NC) (0.0 point); reference 1 (hereinafter referred to as R1) (5.0 points); reference 2 (hereinafter referred to as R2) (10.0 points)). The average score (rounded to two decimal places) of each expert panelist was calculated. An average score of 3.0 points or more was considered to be functional. • NC (0.0 point): 0.063 wt % aspartame solution (solvent: filtered water) • R1 (5.0 points): 0.066 wt % aspartame solution (solvent: filtered water) • R2 (10.0 points): 0.069 wt % aspartame solution (solvent: filtered water)

[4] = Sensory evaluation of yogurt flavor intensity in yogurt drink (Experimental Example 14); details: added alone, 3.0 points or more
Experimental: as §1, §2, §3, §4

[5] = Sensory evaluation of black tea au lait flavor intensity (Experimental Example 15); details: added alone; for black tea au lait flavor-enhancing effect (in words): 0.0001-1000 ppb
Experimental: (§6) Instant black tea au lait powder (product name: Blendy (registered trademark) Stick Black Tea Au Lait (Ajinomoto AGF, Inc.)) was prepared according to the instructions, and then diluted 1.2 times with filtered water to prepare negative control black tea au lait.
(§7) When the carbohydrate content of Blendy (registered trademark) Stick Black Tea Au Lait is calculated as the total sucrose content, the negative control black tea au lait contains 5.2 g of sucrose per 100 g.
(§8) A sensory evaluation of sweetness intensity and black tea au lait flavor intensity was performed for each sample by a panel of three experts according to the following evaluation criteria.
(§9) Sweetness intensity and black tea au lait flavor intensity were each evaluated by 0.0 to 10.0 point based on the following reference samples (negative control (hereinafter referred to as NC) (0.0 point); reference 1 (hereinafter referred to as R1) (5.0 points); reference 2 (hereinafter referred to as R2) (10.0 points)). The average score (rounded to two decimal places) of each expert panelist was calculated. An average score of 3.0 points or more was considered to be functional. • NC (0.0 point): black tea au lait (product name: Black Tea Au Lait, Ajinomoto AGF, Inc.) prepared according to the instructions, and then diluted 1.2 times with filtered water (i.e., negative control black tea au lait). • R1 (5.0 points): with 0.26 g of sugar added per 99.74 g of NC. • R2 (10.0 points): with 0.52 g of sugar added per 99.48 g of NC.

[6] = Sensory evaluation of orange flavor intensity in orange drink (Experimental Example 13); details: added alone, 3.0 points or more
Experimental: A negative control orange drink was prepared by the same method as in Experimental Example 1.
A sensory evaluation of orange flavor intensity was performed for each sample by a panel of three experts according to the following evaluation criteria.
as §5, with “Orange flavor” for “Sweetness”, “Orange)” for “Orange, Asahi Soft Drinks Co., Ltd.)”

[7] = Sensory evaluation of sweetness intensity in black tea au lait (Experimental Example 15); details: added alone; for concentration at which a sweetness-enhancing effect was confirmed: 3.0 points or more
Experimental: as §6, §7, §8, §9

Compound	concentration at which a sweetness-enhancing effect was confirmed [1] [ppb]	concentration at which a sweetness-enhancing effect was confirmed [2] [ppb]	concentration at which a sweetness-enhancing effect was confirmed [3] [ppb]	concentration at which a yogurt flavor-enhancing effect was confirmed [4] [ppb]	black tea au lait flavor-enhancing effect (in words) [5]	concentration at which an orange flavor-enhancing effect was confirmed [6] [ppb]	concentration at which a sweetness-enhancing effect was confirmed [7] [ppb]	sweetness-enhancing effect (in words) ([7]; 0.0001-1000 ppb)	concentration at which a black tea au lait flavor-enhancing effect was confirmed ([5]; 3.0 points or more) [ppb]
CC1=C(O)C(=O)CC1 [cyclotene]	≥ 0.01	≥ 0.1	10	≥ 0.01	concentration-dependent black tea au lait flavor-enhancing effect	≥ 10	≥ 1		
CCCCCCCCCC(=O)O [decanoic acid]	≥ 0.1	≥ 0.1	10	≥ 0.01	concentration-dependent black tea au lait flavor-enhancing effect	≥ 0.01		concentration-dependent sweetness-enhancing effect	
CC(C)CCC(=O)O [4-methylpentanoic acid]	≥ 1	≥ 10	100	≥ 0.1		≥ 10	≥ 100		≥ 1

— patent US20250302080A1, “SWEETNESS AND/OR FLAVOR ENHANCER” (AJINOMOTO CO., INC., priority 2022, published 2025)
